According to patent publication US7833513B2, “Treatment of Alzheimer's Disease” (Rhode Island Hospital, priority 2004, dated 2010):

Tests used:
Format in all cases: in vivo, Long Evans rat
[1] = target: T1, insulin receptor (Rattus norvegicus, UniProt P15127); assay: ic-STZ ± PPAR agonist: equilibrium and saturation binding to insulin receptors in the brain; conditions: for BMAX, insulin receptor saturation binding in brains of treated rats: [125I]-insulin tracer, pooled brain membranes, 4 weeks after ic-STZ ± IP PPAR agonist; for mean insulin receptor binding: temporal lobe and cerebellum
T1 construct: from tissue; host or cells: rat brain (temporal lobe)
T1 sequence (P15127 27-759 limits assumed): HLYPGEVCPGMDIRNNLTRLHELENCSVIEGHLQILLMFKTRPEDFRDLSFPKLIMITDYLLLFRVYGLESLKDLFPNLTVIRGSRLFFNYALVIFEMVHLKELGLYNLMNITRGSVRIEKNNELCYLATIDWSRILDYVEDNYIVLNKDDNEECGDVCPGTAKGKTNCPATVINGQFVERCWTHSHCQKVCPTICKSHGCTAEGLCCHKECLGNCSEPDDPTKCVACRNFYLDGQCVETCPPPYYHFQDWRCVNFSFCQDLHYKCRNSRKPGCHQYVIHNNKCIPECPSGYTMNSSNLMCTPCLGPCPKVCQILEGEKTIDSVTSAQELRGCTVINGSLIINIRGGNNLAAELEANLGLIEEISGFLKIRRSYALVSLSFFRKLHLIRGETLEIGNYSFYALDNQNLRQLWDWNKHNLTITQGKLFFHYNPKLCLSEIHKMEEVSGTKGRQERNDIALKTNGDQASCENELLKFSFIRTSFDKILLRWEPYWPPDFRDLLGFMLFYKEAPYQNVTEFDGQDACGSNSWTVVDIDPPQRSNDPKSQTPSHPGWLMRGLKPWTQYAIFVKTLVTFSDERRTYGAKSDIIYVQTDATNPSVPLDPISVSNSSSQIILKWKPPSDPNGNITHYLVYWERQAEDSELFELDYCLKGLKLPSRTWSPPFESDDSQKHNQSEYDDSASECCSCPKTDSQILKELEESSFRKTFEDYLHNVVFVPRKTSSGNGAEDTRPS
T1 sequence (P15127 764-1383 limits assumed): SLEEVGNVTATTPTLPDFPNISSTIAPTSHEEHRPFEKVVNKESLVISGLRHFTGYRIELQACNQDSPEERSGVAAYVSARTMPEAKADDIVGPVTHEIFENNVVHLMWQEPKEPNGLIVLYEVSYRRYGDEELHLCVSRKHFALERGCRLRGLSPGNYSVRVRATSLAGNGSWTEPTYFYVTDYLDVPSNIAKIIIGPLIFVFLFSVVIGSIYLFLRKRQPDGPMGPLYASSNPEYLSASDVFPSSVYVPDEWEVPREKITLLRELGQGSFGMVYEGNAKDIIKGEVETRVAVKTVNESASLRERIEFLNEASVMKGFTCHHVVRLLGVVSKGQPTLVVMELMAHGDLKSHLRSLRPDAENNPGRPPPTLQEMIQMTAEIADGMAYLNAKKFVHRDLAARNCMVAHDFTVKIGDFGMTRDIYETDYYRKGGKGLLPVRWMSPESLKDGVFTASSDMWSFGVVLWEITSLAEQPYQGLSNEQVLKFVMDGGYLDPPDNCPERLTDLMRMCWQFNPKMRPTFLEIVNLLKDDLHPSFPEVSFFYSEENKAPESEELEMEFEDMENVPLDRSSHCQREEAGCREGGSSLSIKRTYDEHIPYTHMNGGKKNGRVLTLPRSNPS
Procedure: (§1) On the same day, sub-sets of the ic-STZ group were given a single intra-peritoneal injection of vehicle (saline), or a PPAR-α (GW7647; 25 ug/Kg), PPAR-δ (L-165,041; 2 μg/Kg), or PPAR-γ (F-L-Leu; 20 μg/Kg) activator (CalBiochem, Carlsbad, Calif.). […] In addition, at 4 weeks of age, memory and learning were evaluated using a Morris Water Maze (R. W. Hickey, M. Akino, S. Strausbaugh, G. M. De Courten-Myers. Use of the Morris water maze and acoustic startle chamber to evaluate neurologic injury after asphyxial arrest in rats. Pediatr Res 39(1) (1996), 77-84). The procedures and use of rats in these experiments were approved by the Lifespan-Rhode Island Hospital IACUC committee.
(§2) Membrane protein extracted from fresh frozen brain tissue was used for competitive equilibrium and saturation binding assays. For total binding in equilibrium binding assays, duplicate samples were incubated in 100 μl reactions containing binding buffer (100 mM HEPES, pH 8.0, 118 mM NaCl, 1.2 mM MgSO4, 8.8 mM dextrose, 5 mM KCl, 1% bovine serum albumin) and 100 nCi/ml of [^125I] […] To measure total binding in saturation binding assays, samples from 8-12 brains per group were pooled in equal proportions, and duplicate samples were incubated in 100 μl reactions containing binding buffer and 0.0031 to 1 μCi/ml of [^125I] […] To detect non-specific binding in the equilibrium and saturation binding assays, duplicate reactions were incubated with the same concentrations of radiolabeled tracer plus 0.1 μM unlabeled (cold) competitive ligand. After 16 hours incubation at 4° C., bound radiolabeled tracer was precipitated with bovine gamma globulin and polyethylene glycol 8000. The precipitate (bound ligand) and supernatant (free ligand) fractions were counted in an LKB CompuGamma CS Gamma counter. Specific binding was calculated by subtracting fmols of non-specific binding, i.e. amount bound in the presence of excess cold ligand, from total fmols bound in the absence of unlabeled competitive ligand. GraphPad Prism 4 software (San Diego, Calif.) was used to calculate saturation binding (BMAX) and binding affinity (Kd) for each data set.

[2] = system: brain gene expression; assay: ic-STZ ± PPAR agonist: real time quantitative RT-PCR of temporal lobe, hypothalamus, cerebellum; conditions: for ic-STZ associated reductions in IGF-II expression: rat, in vivo; for APP gene expression / Tau gene expression: temporal lobe and hypothalamus; for APP mRNA relative to control and ic-STZ: cerebella
Procedure: as §1
Real Time Quantitative RT-PCR: Total RNA isolated from the temporal lobe, hypothalamus, and cerebellum was reverse transcribed using the AMV First Strand cDNA synthesis kit (Roche Diagnostics Corporation, Indianapolis, Ind.) and random oligodeoxynucleotide primers. […] In addition, pathological shifts in cell type associated with ic-STZ-mediated neurodegeneration were detected by measuring the mRNA levels of Hu (neurons), GFAP (astrocytes), myelin-associated glycloprotein (MAG-1; oligodendroglia), and allograft inflammatory factor-1 (AIF-1; microglia) (E. J. Rivera, A. Goldin, N. Fulmer, R. Tavares, J. R. Wands, S. M. de la Monte, J. Alzheimers Dis 8(3) (2005), 247-68). Ribosomal 18S RNA levels measured in parallel reactions were used to calculate the relative abundance of each mRNA transcript (J. E. Yeon, S. Califano, J. Xu, J. R. Wands, S. M. De La Monte. Potential role of PTEN phosphatase in ethanol-impaired survival signaling in the liver. Hepatology 38(3) (2003), 703-14, J. Xu, J. Eun Yeon, H. Chang, G. Tison, G. Jun Chen, J. R. Wands, et al. Ethanol impairs insulin-stimulated neuronal survival in the developing brain: Role of PTEN phosphatase. J Biol Chem (2003)). The gene expression levels were measured by real time quantitative RT-PCR Relative mRNA abundance was determined from the ng ratios of specific mRNA to 18S (J. E. Yeon, S. Califano, J. Xu, J. R. Wands, S. M. De La Monte. Potential role of PTEN phosphatase in ethanol-impaired survival signaling in the liver. Hepatology 38(3) (2003), 703-14, J. Xu, J. Eun Yeon, H. Chang, G. Tison, G. Jun Chen, J. R. Wands, et al. Ethanol impairs insulin-stimulated neuronal survival in the developing brain: Role of PTEN phosphatase. J Biol Chem (2003)).

[3] = target: T2, IGF-II receptor (Rattus norvegicus, UniProt G3V824); assay: ic-STZ ± PPAR agonist: equilibrium and saturation binding to IGF-II receptors in the brain; conditions: for BMAX, IGF-II receptor saturation binding in brains of treated rats: [125I]-IGF-II tracer, pooled brain membranes, 4 weeks after ic-STZ ± IP PPAR agonist
T2 construct: from tissue; host or cells: rat brain (temporal lobe)
T2 sequence (G3V824 36-2481): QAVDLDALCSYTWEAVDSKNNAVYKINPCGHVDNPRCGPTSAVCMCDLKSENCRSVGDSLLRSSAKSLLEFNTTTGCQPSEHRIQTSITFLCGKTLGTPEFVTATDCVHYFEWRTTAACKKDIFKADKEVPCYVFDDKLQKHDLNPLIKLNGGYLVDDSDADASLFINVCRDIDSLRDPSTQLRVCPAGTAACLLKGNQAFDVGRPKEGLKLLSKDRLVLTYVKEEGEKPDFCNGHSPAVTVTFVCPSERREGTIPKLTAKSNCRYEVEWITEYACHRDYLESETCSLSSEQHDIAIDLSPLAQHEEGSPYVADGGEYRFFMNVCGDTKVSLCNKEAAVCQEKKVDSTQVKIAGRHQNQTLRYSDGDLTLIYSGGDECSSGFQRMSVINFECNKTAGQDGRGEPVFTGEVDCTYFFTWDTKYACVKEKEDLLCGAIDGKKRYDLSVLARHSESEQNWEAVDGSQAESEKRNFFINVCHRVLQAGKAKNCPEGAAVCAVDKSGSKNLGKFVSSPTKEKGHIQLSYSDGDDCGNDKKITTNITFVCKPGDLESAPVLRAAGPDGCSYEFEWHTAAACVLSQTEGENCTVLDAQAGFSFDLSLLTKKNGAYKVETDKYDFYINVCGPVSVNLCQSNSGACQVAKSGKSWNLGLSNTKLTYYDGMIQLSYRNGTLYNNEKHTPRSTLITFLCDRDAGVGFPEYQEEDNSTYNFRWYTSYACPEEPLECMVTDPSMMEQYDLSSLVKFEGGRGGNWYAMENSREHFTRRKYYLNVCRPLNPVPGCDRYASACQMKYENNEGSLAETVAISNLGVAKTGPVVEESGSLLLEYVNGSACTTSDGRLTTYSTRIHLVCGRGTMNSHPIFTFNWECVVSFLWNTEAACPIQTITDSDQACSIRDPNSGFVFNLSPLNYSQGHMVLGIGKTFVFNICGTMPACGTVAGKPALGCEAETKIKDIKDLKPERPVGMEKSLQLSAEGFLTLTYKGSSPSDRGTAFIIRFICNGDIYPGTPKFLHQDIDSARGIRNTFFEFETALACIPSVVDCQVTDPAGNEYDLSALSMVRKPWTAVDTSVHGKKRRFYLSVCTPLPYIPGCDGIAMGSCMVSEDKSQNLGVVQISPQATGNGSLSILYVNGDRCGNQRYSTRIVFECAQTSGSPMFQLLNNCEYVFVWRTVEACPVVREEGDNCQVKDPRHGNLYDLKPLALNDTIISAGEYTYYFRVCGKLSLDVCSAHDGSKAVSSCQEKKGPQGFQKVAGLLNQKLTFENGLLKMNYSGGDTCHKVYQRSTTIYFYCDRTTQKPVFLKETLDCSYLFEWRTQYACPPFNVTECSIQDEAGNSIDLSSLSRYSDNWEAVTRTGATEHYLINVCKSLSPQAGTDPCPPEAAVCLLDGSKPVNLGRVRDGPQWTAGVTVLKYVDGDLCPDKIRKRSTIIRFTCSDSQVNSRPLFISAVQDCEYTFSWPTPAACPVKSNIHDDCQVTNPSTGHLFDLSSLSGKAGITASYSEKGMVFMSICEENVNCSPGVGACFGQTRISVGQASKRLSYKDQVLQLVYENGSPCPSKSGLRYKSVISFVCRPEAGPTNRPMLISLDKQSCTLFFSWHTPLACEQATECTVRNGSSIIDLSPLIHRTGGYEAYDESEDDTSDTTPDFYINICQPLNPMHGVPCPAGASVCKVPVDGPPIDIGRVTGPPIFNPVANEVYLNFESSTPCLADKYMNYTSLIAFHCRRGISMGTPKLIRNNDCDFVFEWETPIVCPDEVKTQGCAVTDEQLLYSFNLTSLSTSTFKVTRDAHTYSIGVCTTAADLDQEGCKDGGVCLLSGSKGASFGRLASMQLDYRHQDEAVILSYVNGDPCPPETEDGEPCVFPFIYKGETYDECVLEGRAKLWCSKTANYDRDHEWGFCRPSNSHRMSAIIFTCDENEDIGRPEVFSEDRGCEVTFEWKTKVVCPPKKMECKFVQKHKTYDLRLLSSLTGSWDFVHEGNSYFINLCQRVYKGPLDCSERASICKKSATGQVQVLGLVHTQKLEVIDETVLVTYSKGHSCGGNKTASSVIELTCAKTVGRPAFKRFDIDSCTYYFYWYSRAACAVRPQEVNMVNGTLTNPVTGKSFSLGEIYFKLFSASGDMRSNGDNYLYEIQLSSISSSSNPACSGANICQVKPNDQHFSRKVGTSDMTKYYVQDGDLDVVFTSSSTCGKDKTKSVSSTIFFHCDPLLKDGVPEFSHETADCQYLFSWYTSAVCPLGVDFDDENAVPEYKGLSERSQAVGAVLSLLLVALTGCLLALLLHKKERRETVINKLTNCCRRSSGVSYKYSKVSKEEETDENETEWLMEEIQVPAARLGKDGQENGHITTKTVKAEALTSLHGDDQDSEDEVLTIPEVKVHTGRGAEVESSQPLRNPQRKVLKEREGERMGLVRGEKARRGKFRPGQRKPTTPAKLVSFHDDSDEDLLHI
Procedure: as §1, §2

[4] = temporal lobe, hypothalamus, cerebellum

SMILES	BMAX, insulin receptor saturation binding in brains of treated rats [1] [fmol/mg protein]	mean insulin receptor binding [1]	ChAT expression ([2]; cerebellum)	Hu gene expression ([2]; hypothalamus)	ic-STZ associated reductions in IGF-II expression [2]	NOX 1 mRNA ([2]; temporal lobe)	APP gene expression [2]	BMAX, IGF-II receptor saturation binding in brains of treated rats [3] [fmol/mg protein]	APP mRNA relative to control and ic-STZ [2]	AChE mRNA compared with ic-STZ treatment alone ([2]; cerebellum)	AIF-1 (microglia) expression relative to ic-STZ group ([2]; cerebellum)	GFAP (astrocytes) expression relative to ic-STZ group ([2]; cerebellum)	Hu (neurons) expression relative to ic-STZ group ([2]; cerebellum)	IGF-I mRNA relative to control ([2]; cerebellum)	IGF-II receptor mRNA ([2]; cerebellum)	AChE mRNA ([2]; hypothalamus)	IGF-I receptor mRNA ([2]; temporal lobe and cerebellum)	Tau gene expression [2]	NOS 2 mRNA ([2]; temporal lobe)	p53 mRNA ([2]; temporal lobe)	also measured
CC(C)(Sc1ccc(CCN(CCCCC2CCCCC2)C(=O)NC2CCCCC2)cc1)C(=O)O [PPAR-α agonist, GW7647]	1.172	significantly increased	significantly increased	significantly increased	variably prevented	significantly reduced	significantly reduced	7.291	–	–	–	–	–	–	–	–	–	–	–	–	MAG-1 gene expression ([2]; hypothalamus): increased
CC(C)C[C@H](NC(=O)OCC1c2ccccc2-c2ccccc21)C(=O)O [PPAR-γ agonist, F-L-Leu]	1.127	significantly increased	significantly increased	–	variably prevented	significantly reduced	significantly reduced	9.223	significantly higher	significantly reduced	increased	decreased	increased	significantly increased	significantly increased	significantly increased	significantly increased	restored Tau gene expression to control levels	–	–	–
CCCc1c(OCCCOc2ccc(OCC(=O)O)cc2)ccc(C(C)=O)c1O [PPAR-δ agonist, L-165,041]	2.186	significantly increased	significantly increased	significantly increased	–	comparable to control	–	20.22	significantly higher	significantly reduced	increased	decreased	increased	significantly increased	significantly increased	significantly increased	significantly increased	restored Tau gene expression to control levels	comparable to control	comparable to control	insulin receptor binding ([1]; hypothalamus): significantly increased; IGF-II receptor binding ([3]; cerebellum): significantly increased; BMAX for IGF-II receptor (in words) vs ic-STZ group ([3]; rat, in vivo): increased
CN(N=O)C(=O)NC1C(O)OC(CO)C(O)C1O (stereo not shown) [STZ]	0.8421	–	–	–	–	significantly increased	–	6.431	–	–	–	–	–	–	–	significantly increased	–	–	significantly increased	significantly increased	steady-state insulin receptor binding [1, 4]: significantly reduced; IGF-II receptor expression ([2]; hypothalamus): did not significantly impair; IGF-I mRNA ([2]; hypothalamus and cerebellum): not significantly reduced; IGF-I receptor expression ([2]; hypothalamus and cerebellum): significantly reduced; AChE expression ([2]; temporal lobe): significantly reduced; IGF-I receptor expression ([2]; temporal lobe): did not significantly impair; NOS 3 mRNA ([2]; temporal lobe): significantly increased; ChAT mRNA ([2]; temporal lobe and cerebellum): significantly reduced; IGF-II receptor expression ([2]; temporal lobe and cerebellum): significantly reduced; insulin receptor gene expression [2, 4]: significantly reduced; binding to IGF-II receptors ([3]; temporal lobe and cerebellum): reduced
